# Assay results taken from US9907848B2, “Methods and compositions for treatment of metabolic disorders” (Beth Israel Deaconess Medical Center, Inc., priority 2010, dated 2018).
# “Also recorded” adds a separate entry of the source.
# What was measured:
# IL-4 and IL-10 = assay: Neutralizing IL-4 and IL-10 prior to αGC treatment, metabolic outcomes after 4 days; type: in vivo, mice; settings: IL-4 and IL-10 neutralized before αGC injection
# From the text: As adipose tissue iNKT cells are skewed towards IL-4 and IL-10 production, we next investigated whether IL-4 and IL-10 were mediators of this protection seen by αGC treatment. We neutralized IL-4 and IL-10 prior to αGC treatment and measured metabolic outcomes after 4 days.
# iNKT cells [1] = assay: Effect of αGC on iNKT cells in fat, liver and spleen of obese mice; type: in vivo
# Protocol: Single cell suspensions of splenocytes, liver mononuclear cells (LMNCs), and adipose SVF were blocked with anti-CD16/32 mAb and stained for 30 min at 4° C. in the dark with PBS-57-loaded or empty CD1d tetramer-PE (NIH tetramer facility) and CD3 (1:150 dilution, eBiosciences). Macrophages were labeled with phycoerythrin-conjugated antibody to F4/80 (1 in 100) and CD11c (1 in 200) and CD206 (1 in 200) to differentiate M1 from M2 macrophages in the SVF as previously described.
# (§1) Mice were injected i.p. with 2 μg of αGC or vehicle, and mice were sacrificed after 5 hours or 4 days, at the time of metabolic analysis. Single cell suspension of splenocytes, LMNC, and adipose tissue SVF were obtained as before, but with the inclusion of Brefeldin A in all media. Single cell suspensions of splenocytes or liver mononuclear cells (LMC) were stained firstly with cell surface labeling anti-CD3 mAb and αGC-loaded CD1d tetramer. Cells were then fixed, permeabilized, and intracellular cytokine stained for IL-4, IL-10 and IFN-γ using Cytofix/cytoperm (BD Biosciences), according to the manufacturer's instructions.
# iNKT [2] = assay: In vitro iNKT cytokine production stimulated by αGC-loaded CD1d+ C1R cells; type: cell-based, mice; settings: isolated iNKT stimulated with αGC
# From the text: (§2) To verify the cytokine profile, iNKT were isolated (>90% purity) and stimulated in vitro with αGC.
# iNKT [3] = settings: literature statement; cited from earlier work
# iNKT [4] = assay: iNKT cytokine production in response to αGC in vivo (wt mice)
# Protocol: as §2, §1
# iNKT cells [5] = assay: αGC treatment of normal weight mice on SFD; type: in vivo
# Protocol: (§3) The prototypical ligand for iNKT cells is the glycolipid, αGC. We investigated whether αGC treatment could activate the residual iNKT cells in obesity and improve metabolic outcome (FIGS. 16A-16H).
# Wt, Jα18 KO and CD1d KO were weighed weekly and food intake was monitored on HFD. Body fat content was measured by an X-ray emitting DEXA scan, performed after mice were sacrificed. Whole abdominal adipose fat pads were weighed after dissecting out the testes and lymph nodes. […] For glucose tolerance tests, fasted (10 h) mice received 1 g glucose per kg body weight intraperitoneally (i.p); for insulin resistance, the homeostatic model assessment of insulin resistance (HOMA-IR) was used (Matthews et al., Diabetologia 28:412-419, 1985) was used: fasting blood glucose×fasting insulin/22.5. Two samples of 5 mm liver were collected and fixed in formalin overnight, prior to paraffin mounting and preparation of ME or Oil Red 0 stained slides for measurement of fatty liver or adipose prior to αGC (or control) treatment. For H&E and Oil Red O staining, biopsies were viewed using the 20× objective. Degree of fatty liver was measured by Oil Red O staining intensity around 5 portal tract areas per slide.
# Mice were injected i.p. with 2 μg of αGC or vehicle, and mice were sacrificed after 5 hours or 4 days, at the time of metabolic analysis. […]
# iNKT cells [6] = assay: αGC treatment of obese wt mice on HFD, metabolic outcome 4 days post-injection; type: in vivo
# Protocol: as §3
# (§4) Wt, Jα18 KO and CD1d KO were weighed weekly and food intake was monitored on HFD. Body fat content was measured by an X-ray emitting DEXA scan, performed after mice were sacrificed. Whole abdominal adipose fat pads were weighed after dissecting out the testes and lymph nodes. After 6 weeks on HFD, fasting blood glucose (OneTouch Ultra) and insulin concentrations (Crystal Chem ELISA) were measured. For glucose tolerance tests, fasted (10 h) mice received 1 g glucose per kg body weight intraperitoneally (i.p); for insulin resistance, the homeostatic model assessment of insulin resistance (HOMA-IR) was used (Matthews et al., Diabetologia 28:412-419, 1985) was used: fasting blood glucose×fasting insulin/22.5. Two samples of 5 mm liver were collected and fixed in formalin overnight, prior to paraffin mounting and preparation of ME or Oil Red 0 stained slides for measurement of fatty liver or adipose prior to αGC (or control) treatment. For H&E and Oil Red O staining, biopsies were viewed using the 20× objective. Degree of fatty liver was measured by Oil Red O staining intensity around 5 portal tract areas per slide.
# Adipocyte size and number were measured by osmium and immunohistochemistry. Two samples of 20-30 mg of adipose tissue per mouse were immediately fixed in osmium tetroxide (3% solution in collidine 0.05 M), minced into 1 mm pieces and incubated in the dark at room temperature for 48 hours. Adipose cell size and number were determined by a Beckman Coulter Multisizer III Counter with a 400 μm aperture. Adipose tissue was also fixed in formalin overnight, prior to paraffin mounting and preparation of H&E slid s. Adipocyte number was counted per field of view, in ten fields per sample and related back to the original weight of each fat pad.
# as §1
# iNKT cells [7] = assay: Effect of αGC on iNKT cells in fat, liver and spleen of obese mice; type: in vivo; settings: after 6 hours
# iNKT cells [8] = assay: αGC treatment of obese Jα18 KO mice (no iNKT cells), control; type: in vivo; settings: 4 days post αGC
# Protocol: as §3, §4, §1
structure (smiles),measurement,setting,value
"CCCCCCCCCCCCCCCCCCCCCCCCCC(=O)NC(COC1OC(CO)C(O)C(O)C1O)C(O)C(O)CCCCCCCCCCCCCC (stereo not drawn) [αGC, α-galactosylceramide]",GTT,IL-4 and IL-10,prevented improvement
same,fasting glucose,IL-4 and IL-10,prevented improvement
same,IFNγ production by adipose tissue iNKT cells,"iNKT cells [1]; 4-5 hours, vs spleen and liver",little IFNγ
same,IL-4 and IL-10 production by adipose tissue iNKT cells,"iNKT cells [1]; 4-5 hours, vs spleen and liver",more IL-4 and IL-10
same,expansion of iNKT cells in fat (adipose tissue),iNKT cells [1]; 4 days post-injection,expansion was greater in fat; also recorded: dramatic expansion
same,cytokine production by adipose tissue iNKT cells,iNKT cells [1]; day 4 post-injection,"still producing cytokines at day 4; also recorded: produced IL-4, IL-10, and IFN-γ at day 4; also recorded: remained actively producing cytokines"
same,expansion of iNKT cells in spleen and liver,iNKT cells [1]; day 4 post-injection,expansion of iNKT cells by day 4
same,cytokine production by liver and spleen iNKT cells,iNKT cells [1]; within 4-5 hours,produced both IFNγ and IL-4
same,IL-10 production by adipose iNKT in vitro,iNKT [2]; vs liver or spleen,significantly more IL-10 per cell
same,IFNγ production by adipose iNKT in vitro,iNKT [2]; vs splenic or hepatic iNKT,low levels of IFNγ; also recorded: significantly less IFNγ
same,activation of iNKT,iNKT [3],activate iNKT
same,IL-4 production by adipose iNKT in vivo,iNKT [4]; following injection of αGC,slightly less IL-4
same,IL-10 production by adipose iNKT in vivo,"iNKT [4]; following injection of αGC, vs liver and spleen",significantly more IL-10
same,IFNγ production by adipose iNKT in vivo,"iNKT [4]; following injection of αGC, vs liver or spleen",did not produce IFNγ
same,IFNγ production by spleen and liver iNKT in vivo,iNKT [4]; response to αGC,copious IFNγ
same,IL-4 production by spleen and liver iNKT in vivo,iNKT [4]; response to αGC,less IL-4
same,IL-10 production by spleen and liver iNKT in vivo,iNKT [4]; response to αGC,very low levels of IL-10
same,GTT,iNKT cells [5],did not affect
same,fasting glucose,iNKT cells [5],did not affect
same,% body fat (DEXA),iNKT cells [6]; 4 days post αGC injection,lost a significant amount; also recorded: decreased
same,adipocyte number,iNKT cells [6]; 4 days post αGC injection,did not affect cell number; also recorded: did not differ
same,adipocyte size,iNKT cells [6]; 4 days post αGC injection,rapid and dramatic reduction in adipocyte size; also recorded: decreased
same,circulating leptin,iNKT cells [6]; 4 days post αGC injection,significantly improved; also recorded: decreased
same,glucose tolerance test (GTT),iNKT cells [6]; 4 days post αGC injection,"improved GTT, returning it to almost normal"
same,insulin resistance / insulin sensitivity,iNKT cells [6]; 4 days post αGC injection,significantly improved insulin resistance; also recorded: increased insulin sensitivity
same,lean mass (DEXA),iNKT cells [6]; 4 days post αGC injection,did not differ
same,serum IL-4,iNKT cells [6]; 4 days post αGC injection,non-significant increase
same,serum IL-6,iNKT cells [6]; 4 days post αGC injection,decreased serum IL-6
same,serum TNFα,iNKT cells [6]; 4 days post αGC injection,increased serum TNF-a
same,serum triglycerides (circulating TGL),iNKT cells [6]; 4 days post αGC injection,significantly improved; also recorded: decreased circulating TGL
same,fat deposition in the liver (Oil Red O),"iNKT cells [6]; 4 days post αGC injection, vs PBS",fat droplets were smaller and less frequent
same,fasting blood glucose,"iNKT cells [6]; 4 days post αGC injection, vs PBS control",marked reduction of fasting blood glucose
same,overall weight,"iNKT cells [6]; one i.p. injection of αGC, continued HFD for 4 days, vs PBS/vehicle",lost a significant amount of overall weight
same,invariant TCR expression on iNKT cells,iNKT cells [7],down-regulation of the invariant TCR after 6 hours
same,GTT,iNKT cells [8],not seen; also recorded: did not affect
same,fasting glucose,iNKT cells [8],improvement in fasting glucose was not seen; also recorded: did not affect
same,weight loss,iNKT cells [8],weight loss was not seen
